# Results reported in US7220775B2, “Compound useful for the treatment of neuropathic pain” (H. Lundbeck A/S, priority 2002, dated 2007).
# Where two headings read alike, the source gives them in different places.
# Tests used:
# [1] = molecular target: T1, human GAL3 receptor (Homo sapiens, UniProt O60755); assay: Radioligand binding at cloned human GAL3 receptor
# T1 construct: expressed in transfected cells
# T1 sequence (O60755 1-368): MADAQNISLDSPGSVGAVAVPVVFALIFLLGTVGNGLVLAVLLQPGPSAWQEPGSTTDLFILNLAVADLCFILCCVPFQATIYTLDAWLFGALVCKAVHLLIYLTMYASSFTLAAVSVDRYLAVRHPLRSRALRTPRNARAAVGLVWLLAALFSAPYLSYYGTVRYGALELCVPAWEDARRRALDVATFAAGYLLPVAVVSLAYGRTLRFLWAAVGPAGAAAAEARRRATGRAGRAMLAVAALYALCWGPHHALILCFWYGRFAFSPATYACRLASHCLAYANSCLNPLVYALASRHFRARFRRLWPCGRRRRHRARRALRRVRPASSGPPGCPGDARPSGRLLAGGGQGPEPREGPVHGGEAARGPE
# Method: (§1) The present invention provides for a method of determining the binding affinity of a GAL3 antagonist, wherein the GAL3 antagonist is dissolved in a “suitable solvent”. A “suitable solvent” means one which permits the measurement of binding affinity of the GAL3 antagonist to the human GAL3 receptor at concentrations less than 1 μM, preferably less than 100 nM. Examples of solvents include, but are not limited to, DMSO, ethanol, N,N-dimethylacetamide, or water. For indolones, the preferred solvent is 3% DMSO (final concentration in the assay). For pyrimidines, the preferred solvent is 1% ethanol/0.09% polypuronic acid F-127 (final concentration in the assay). For any other type of compounds, the preferred solvent is the solvent which permits the measurement of binding affinity of a GAL3 antagonist at the lowest concentration. Once a suitable solvent is ascertained for the binding assay of the human GAL3 receptor, the same solvent is used in assays to determine the binding affinity for instance, at the GAL1 receptor.
# (§2) LM(tk−) cells were stably transfected with the human GAL1 or GAL3 receptor. CHO cells were stably transfected with the human GAL2 receptor.
# (§3) cDNAs for the human and rat GAL1, and human and rat GAL3 receptors were transfected with a G-418 resistant gene into the mouse fibroblast LM(tk−) cell line by a calcium phosphate transfection method (Cullen, 1987). Stably transfected cells were selected with G-418. Human and rat GAL2 receptors were similarly transfected into CHO cells.
# (§4) Membranes were harvested from stably transfected LM(tk−) cells. Adherent cells were washed twice in ice-cold phosphate buffered saline (138 mM NaCl, 8.1 mM Na2HPO4, […] KCl, 1.2 mM KH2PO4, 0.9 mM CaCl2, 0.5 mM MgCl2, pH 7.4) and lysed by sonication in ice-cold sonication buffer (20 mM Tris-HCl, 5 mM EDTA, pH 7.7). […] Protein concentration was measured by the Bradford method (Bradford, 1976) using Pio-Rad Reagent, with bovine serum albumin as a standard. […]
# (§5) Binding data were analyzed using nonlinear regression and statistical techniques available in the GraphPAD Prism package (San, Diego, Calif.). […]
# [2] = molecular target: T2, human GAL1 receptor (Homo sapiens, UniProt P47211); assay: Radioligand binding at cloned human GAL1 receptor; settings: read-out: Ki (nM) GalR1
# T2 construct: expressed in transfected cells
# T2 sequence (P47211 1-349): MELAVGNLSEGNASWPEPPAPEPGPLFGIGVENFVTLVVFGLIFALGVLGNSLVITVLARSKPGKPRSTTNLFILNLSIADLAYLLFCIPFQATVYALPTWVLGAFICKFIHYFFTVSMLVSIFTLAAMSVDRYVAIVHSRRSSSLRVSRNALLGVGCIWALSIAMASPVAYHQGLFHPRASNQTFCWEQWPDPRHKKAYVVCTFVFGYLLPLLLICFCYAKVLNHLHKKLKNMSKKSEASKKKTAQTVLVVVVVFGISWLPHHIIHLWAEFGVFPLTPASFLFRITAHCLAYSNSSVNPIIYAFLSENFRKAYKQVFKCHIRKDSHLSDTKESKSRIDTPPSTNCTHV
# Method: as §1, §2, §3
# Membranes were harvested from stably transfected LM(tk−) cells. Adherent cells were washed twice in ice-cold phosphate buffered saline (138 mM NaCl, 8.1 mM Na2HPO4, […] KCl, 1.2 mM KH2PO4, 0.9 mM CaCl2, 0.5 mM MgCl2, pH 7.4) and lysed by sonication in ice-cold sonication buffer (20 mM Tris-HCl, 5 mM EDTA, pH 7.7). Large particles and debris were cleared by low speed centrifugation (200×g, 5 min, 4° C.). Membranes were collected from the supernatant fraction by centrifugation (32,000×g, 18 min, 4° C.), washed with ice-cold hypotonic buffer, and collected again by centrifugation (32,000×g, 18 min, 4° C.). The final membrane pellet was resuspended by sonication into a small volume of ice-cold binding buffer (˜1 ml for every 5 plates: 10 mM NaCl, […] HEPES, 0.22 mM KH2PO4, 1.26 mM Cal2, 0.81 mM MgSO4, pH 7.4). Protein concentration was measured by the Bradford method (Bradford, 1976) using Pio-Rad Reagent, with bovine serum albumin as a standard. Membranes were held on ice for up to one hour and used fresh, or flash frozen and stored in liquid nitrogen. Membranes were prepared similarly from CHO cells. […]
# as §5
# [3] = molecular target: T3, human GAL2 receptor (Homo sapiens, UniProt O43603); assay: Radioligand binding at cloned human GAL2 receptor; settings: read-out: Ki (nM) GalR2
# T3 construct: expressed in transfected cells
# T3 sequence (O43603 1-387): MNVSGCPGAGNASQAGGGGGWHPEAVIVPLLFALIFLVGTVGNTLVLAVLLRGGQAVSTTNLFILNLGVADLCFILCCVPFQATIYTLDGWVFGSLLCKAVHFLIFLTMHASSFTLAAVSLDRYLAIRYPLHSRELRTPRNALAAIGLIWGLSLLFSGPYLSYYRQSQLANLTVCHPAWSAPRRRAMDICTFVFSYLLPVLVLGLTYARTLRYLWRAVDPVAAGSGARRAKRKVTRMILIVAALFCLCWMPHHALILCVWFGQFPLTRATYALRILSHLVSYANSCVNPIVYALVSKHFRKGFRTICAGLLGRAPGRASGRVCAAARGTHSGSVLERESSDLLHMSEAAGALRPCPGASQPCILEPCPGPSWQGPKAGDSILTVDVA
# Method: as §1, §2, §3, §4, §5
# [4] = system: neuropathic rats (chronic constriction nerve injury); assay: Chronic constriction nerve injury model of neuropathic pain: mechanical allodynia (Von Frey filaments); format: in vivo, rat; settings: 10 mg/kg i.p.
# Method: (§6) The aim of this study was to assess the potential analgesic effects of Example 92 following intraperitoneal administration at the doses of 3, 10 and 30 mg/kg, respectively, in an animal model of neuropathic pain. A peripheral mononeuropathy was induced in the right hind limb of rats following a chronic constriction nerve injury (Bennett and Xie, 1988), and the development of mechanical allodynia and thermal hyperalgesia was monitored using established behavioral tests (Attal, N., et al., 1990; Hargreaves, K., et al., 1988).
# (§7) Male Sprague-Dawley rats within the weight range of 200-225 g, and approximate age 7-9 weeks, were allowed to acclimate for a minimum of 6 days prior to the start of the behavioral testing.
# (§8) All rats underwent a chronic constriction nerve injury, and of these, those that successfully developed allodynia and hyperalgesia were allocated to treatment groups.
# (§9) There were 5 separate treatment groups (with a minimum of 10 rats per group). The treatment groups were as follows: • Group C received Morphine at 10 mg/kg (n=10) • Group D received Vehicle for Example 92* at 1 ml/kg (n=10) (* 100% DMSO) • Group E received Example 92 at 30 mg/kg (n=10) • Group F received Example 92 at 3 mg/kg (n=10) • Group G received Example 92 at 10 mg/kg (n=10)
# (§10) The dose volume for all treatments was 1 ml/kg. Each rat received a single i.p. dose of the test substance, reference substance or vehicle on Day 12 PO. Test substance and vehicle dosing solutions were encoded (C-G) so that the observers were unaware of the identity of the treatment groups.
# (§11) The behavioral tests (Von Frey filament and Thermal Plantar Tests—see below) were performed on all rats on 3 separate days prior to […], to establish baseline values. The pre-surgery baseline values were calculated as the mean of the last 2 days testing (the data from the first day of testing were not included as this was classed as part of the acclimating period). The sequence of tests was always mechanical allodynia (Von Frey Test) followed by thermal hyperalgesia (Thermal Plantar Test), with a minimum 5 min period allowed between the 2 tests.
# Each animal was placed in a wire mesh cage and a series of Von Frey filaments (ranging from filament handle number 3.61 to 6.10) applied to the plantar surface of the hind paw, from below. The filaments were applied in ascending order (starting with the weakest force) and the withdrawal threshold for both the ipsilateral and contralateral hind paws was evaluated. Each filament was indented on the plantar surface of the foot to the point where it just started to bend, and this was repeated approximately 8-10 times per filament at a frequency of approximately 1 Hz. The withdrawal threshold was defined as the lowest force of two or more consecutive Von Frey filaments to elicit a reflex withdrawal response.
# The animals were surgically prepared over 5 days. Each rat was anaesthetized with sodium pentobarbitone (60 mg/ml; 0.6 ml/kg dose, intraperitonealy; batch number 00230; expiry date 22 May 3) and then supplemented as necessary with isoflurane (1-3% in oxygen). The surface around the incision site was shaved and then sterilized with surgical spirit. Under aseptic conditions the right sciatic nerve was exposed by blunt dissection at mid-thigh level and approximately 1 cm of nerve was freed of adhering connective tissue. Four chromic cat gut (4.0) ligatures, spaced at approximately 1 mm inzervals, were then tied so as to barely constrict the nerve (as viewed under 40× magnification) to induce a peripheral mononeuropathy in the right hind limb. The overlying muscle and skin were then closed in layers using suture material, and the anesthesia discontinued. On recovery from anesthesia, the rats were re-housed with their cage mates on soft padded bedding overnight (to reduce the risk of infection) and subsequently on sawdust bedding following full recovery. The animals were allowed 4 full days to recover before the behavioral testing was recommenced. […]
# [5] = system: neuropathic rats (chronic constriction nerve injury); assay: Chronic constriction nerve injury model of neuropathic pain: thermal hyperalgesia (Thermal Plantar Test); format: in vivo, rat; settings: 10 mg/kg i.p.
# Method: as §6, §7, §8, §9, §10, §11
# Each rat was placed in a clear plastic chamber with a glass floor and allowed a short period to acclimatize to the new environment (approximately 5 min.). The animals were then challenged with a radiant Infrared (IR) heat source, directed at the plantar surface of the hind paw from below, and the withdrawal latency of both the ipsilateral and contralateral hind paws was evaluated. The infrared intensity was set at IR50 and the maximum length of exposure to the IR source was 18 s. Non-responding animals were allocated a withdrawal latency of 18 s.
# The animals were surgically prepared over 5 days. […]
structure (smiles),measurement,setting,value
COc1ccc(N2CCN(c3nc(Nc4ccc(C)cc4)cc(N4CCCCC4)n3)CC2)c(OC)c1 [Example 28],Ki,"[1]; Table 1, pyrimidines, read-out: Ki (nM) GalR3",270 nM
same,Ki,"[2]; Table 1, pyrimidines",> 5000 nM
same,Ki,"[3]; Table 1, pyrimidines",> 5000 nM
Cc1ccccc1Nc1cc(N(C)C)nc(Nc2ccccc2)n1 [Example 51],Ki,"[2]; Table 2, pyrimidines",> 5000 nM
same,Ki,"[3]; Table 2, pyrimidines",> 5000 nM
CN(C)c1cc(N)nc(N(c2ccccc2)c2ccc(Cl)cc2)n1 [Example 58],Ki,"[1]; Table 2, pyrimidines, read-out: Ki (nM) GalR3",783 nM
same,Ki,"[2]; Table 2, pyrimidines",> 5000 nM
same,Ki,"[3]; Table 2, pyrimidines",> 5000 nM
C[C@H]1CC2CC([C@@H]1Nc1cc(N(C)C)nc(Nc3ccccc3)n1)C2(C)C (some centres unmarked) [Example 71],Ki,"[2]; Table 2, pyrimidines",> 5000 nM
CN(C)c1cc(NC2C3CC4CC(C3)CC2C4)nc(N2CCN(Cc3ccccc3)CC2)n1 (centres unmarked) [Example 137],Ki,"[1]; Table 3a, pyrimidines, read-out: Ki (nM) Gal3",124 nM
"CN1CC[C@]23c4c5ccc(O)c4O[C@H]2[C@@H](O)C=C[C@H]3[C@H]1C5 [morphine, reference compound]",contralateral paw effects (Von Frey),[4]; 30 and 90 min,significant contralateral effects
same,effect on withdrawal threshold of the nerve-injured hind paw (Von Frey),[4]; up to 90 min PD,significantly increased
same,effect on withdrawal latency of the nerve-injured hind paw to the thermal plantar device,[5]; approx. 40 and 100 min PD,significantly increased
same,"withdrawal latency to a noxious heat stimulus, nerve-injured and contralateral hind paws",[5]; up to 100 min PD,significant increase
